Measurements reported in US5677152A, “Nucleic acid amplification using a reersibly inactivated thermostable enzyme” (Roche Molecular Systems, Inc., priority 1996, dated 1997).

B1: citraconylated rTth: citraconylated thermostable DNA polymerase from Thermus thermophilus (protein, UniProt P52028 1-834, looked up)
DNA polymerase I, thermostable: MEAMLPLFEPKGRVLLVDGHHLAYRTFFALKGLTTSRGEPVQAVYGFAKSLLKALKEDGYKAVFVVFDAKAPSFRHEAYEAYKAGRAPTPEDFPRQLALIKELVDLLGFTRLEVPGYEADDVLATLAKKAEKEGYEVRILTADRDLYQLVSDRVAVLHPEGHLITPEWLWEKYGLRPEQWVDFRALVGDPSDNLPGVKGIGEKTALKLLKEWGSLENLLKNLDRVKPENVREKIKAHLEDLRLSLELSRVRTDLPLEVDLAQGREPDREGLRAFLERLEFGSLLHEFGLLEAPAPLEEAPWPPPEGAFVGFVLSRPEPMWAELKALAACRDGRVHRAADPLAGLKDLKEVRGLLAKDLAVLASREGLDLVPGDDPMLLAYLLDPSNTTPEGVARRYGGEWTEDAAHRALLSERLHRNLLKRLEGEEKLLWLYHEVEKPLSRVLAHMEATGVRLDVAYLQALSLELAEEIRRLEEEVFRLAGHPFNLNSRDQLERVLFDELRLPALGKTQKTGKRSTSAAVLEALREAHPIVEKILQHRELTKLKNTYVDPLPSLVHPRTGRLHTRFNQTATATGRLSSSDPNLQNIPVRTPLGQRIRRAFVAEAGWALVALDYSQIELRVLAHLSGDENLIRVFQEGKDIHTQTASWMFGVPPEAVDPLMRRAAKTVNFGVLYGMSAHRLSQELAIPYEEAVAFIERYFQSFPKVRAWIEKTLEEGRKRGYVETLFGRRRYVPDLNARVKSVREAAERMAFNMPVQGTAADLMKLAMVKLFPRLREMGARMLLQVHDELLLEAPQARAEEVAALAKEAMEKAYPLAVPLEVEVGMGEDWLSAKG
modifications: citraconylated

Legend:
[1] = system: HIV-1 genomic sequence; assay: PCR amplification of HIV-1 with citraconylated DNA polymerases, agarose gel analysis; type: biochemical; details: 100 copies HIV-1 template; pre-reaction incubation 95° C. for 12 minutes; enzyme dilutions 1/10-1/80
Description: Amplifications were carried out using dilutions of modified DNA polymerases. Dilutions were made in a buffer consisting of 20 mM Tris-HCl, pH 8.0 (at room temperature), 100 mM KCl,0.1 mM EDTA (ethylenediaminetetraacetic acid), 1 mM DTT (dithiothreitol), 50% glycerol, 0.5% Tween 20, 0.5% Nonidet P40 (AmpliTaq® storage buffer, Perkin Elmer, Norwalk, Conn.).
An HIV-1 genomic sequence was amplified using primers SK145 and SK431 (Perkin Elmer, Norwalk, Conn.). The PCR was carried out in a 100 μl reaction volume under the following reaction conditions.
100 copies of HIV-1 DNA template
(§1) 200 μM dATP, dCTP, and dGTP
0.5 μl of DNA polymerase solution
(§2) 1 unit of UNG (Perkin Elmer, Norwalk, Conn.) […]
The pre-reaction incubation step also serves as the initial denaturation step. An initial denaturation step is routinely used in a typical amplification reaction to insure complete denaturation of the double-stranded target. Each cycle of the PCR begins with a denaturation step of 94° C. for 1 minute. Thus, immediately following the initial pre-reaction incubation carried out at 95° C. for 12 minutes, the reaction mixture is incubated at 94° C. for 1 minute during the denaturation step of the first cycle.
The amplified products were analyzed by agarose gel electrophoresis (100 ml of 3% NuSieve and 0.5% SeaChem) using a 1× TBE (0.089M Tris, 0.089M boric acid, 0.0025M disodium EDTA) running buffer. Electrophoresis was carried out at 100 volts for approximately 1 hour. Ethidium bromide (0.5 μg/ml) was added following electrophoresis to stain any DNA present. The gel was destained in TBE and the ethidium bromide-stained bands of DNA were visualized using UV irradiation.
Dilutions (1/10, 1/20, 1/40, and 1/80) of the citraconylated DNA polymerases described in Example 5 and the 240× citriconylated Taq DNA polymerase described in Example 2 were used in amplifications of HIV-1 nucleic acid and the amplified products were anaylzed by agarose gel electrophoresis. For comparison, amplifications were carried out using dilutions of unmodified Taq DNA polymerase. […]

[2] = system: HIV-1 genomic sequence; assay: Effect of pre-reaction incubation time on PCR product (HIV-1 model system); type: biochemical; details: for amplified product without a pre-reaction incubation (FIG. 4): 0 minutes pre-reaction incubation, compared with extended incubation
Description: Amplifications were carried out using the citraconylated and cis-aconitylated Taq DNA polymerases prepared as described above. For each set of amplification conditions, Taq DNA polymerases modified using a 80-fold and a 160-fold molar excess of citaconic anhydride, and a 90-fold and a 180-fold molar excess of cis-aconitic anhydride were used. Amplifications were carried out using the HIV-1 model system described in Example 6, above, except that the initial pre-reaction incubation was varied. For each enzyme preparation, amplifications were carried out using pre-reaction incubations of 12, 6, 3, and 0 minutes.
As noted above, the pre-reaction incubation step also serves as the initial denaturation step. Each cycle of a PCR begins with a denaturation step. Immediately following the initial pre-reaction incubation carried out at 95° C. for 12, 6, 3, or 0 minutes, each reaction mixture is incubated at 94° C. for 1 minute during the denaturation step of the first cycle. Thus, even when no pre-reaction incubation was used, enzyme activity is recovered during the denaturation step of the initial cycles.
The amplification products were analyzed by agarose gel electrophoresis. The band corresponding to the amplified target sequence is indicated. Bands appearing on the gel other than the band which corresponds to the amplified target sequence correspond to the products generated by the non-specific amplification of non-target sequences.

[3] = system: cloned HTLV-I genomic sequence; assay: PCR amplification of HTLV-I with citraconylated Taq DNA polymerase, agarose gel analysis; type: biochemical; details: 30 copies HTLV-I template; pre-reaction incubation 90° C. for 10 minutes; enzyme dilutions 1/10-1/80
Description: Amplifications were carried out using 1/20, 1/40, and 1/80 dilutions of the 240× modified Taq DNA polymerase described in Example 2. Dilutions were made in a buffer consisting of 20 mM Tris-HCl, pH 8.0 (at room temperature), 100 mM KCl, 0.1 mM EDTA (ethylenediaminetetraacetic acid), 1 mM DTT (dithiothreitol), 50% glycerol, 0.5% Tween 20, 0.5% Nonidet P40 (AmpliTaq®storage buffer, Perkin Elmer, Norwalk, Conn.). For comparison, amplifications also were carried out using 1/10, 1/20, 1/40, and 1/80 dilutions of unmodified Taq DNA polymerase.
A cloned HTLV-I genomic sequence was amplified using primers SK432 and SK111. The primer sequences are provided in U.S. Pat. No. 5,418,149, incorporated herein by reference. The PCR was carried out in a 100 μl reaction volume under the following reaction conditions.
30 copies of HTLV-I DNA template
as §1
0.5 μl of citraconylated Taq DNA polymerase solution
as §2
The amplified products were analyzed by 4% agarose gel electrophoresis using a 1× TBE (0.089M Tris, 0.089M boric acid, 0.0025M disodium EDTA) running buffer. Electrophoresis was carried out at 100 volts for approximately 2 hours. Ethidium bromide (0.5 μg/ml) was added following electrophoresis to stain any DNA present. The gel was destained in 1× TBE and the ethidium bromide-stained bands of DNA were visualized using UV irradiation. […]

[4] = Storage stability of inactivated enzyme; type: physicochemical; details: stored at 25° C.
[5] = system: HIV-1 genomic sequence; assay: Effect of amplification cycle number on PCR product (HIV-1 model system); type: biochemical; details: no pre-reaction incubation; 39, 43, 48, 60 cycles
Description: Amplifications were carried out using the Taq DNA polymerases modified using a 80-fold and a 160-fold molar excess of citraconic anhydride, and a 90-fold and a 180-fold molar excess of cis-aconitic anhydride. The Amplifications were carried out essentially as described above using the HIV-1 model system described in Example 6, except that the initial pre-reaction incubation and cycle numbers were varied. For each enzyme preparation, amplifications were carried out using the following conditions: […]
The amplification products were analyzed by agarose gel electrophoresis.

Molecule	amplified target band versus non-specific amplification products (FIG. 3) [1]	amplified product without a pre-reaction incubation (FIG. 4) [2]	pre-reaction incubation required to obtain the maximum amount of amplified product ([2]; 95° C. pre-reaction incubation)	amplified target band versus non-specific amplification products (FIG. 2) [3]	storage stability: time enzyme remains inactivated [4]	effect of increasing the amplification cycle number on amplified product (FIG. 5) [5]	amplified product band over pre-reaction incubation times (FIG. 4) ([2]; pre-reaction incubations of 12, 6, 3 and 0 minutes at 95° C.)
citraconylated Taq DNA polymerase: Taq DNA polymerase modified using citraconic anhydride; 240× in Examples 4 and 6, 80× and 160× in Examples 9 and 10	intense band corresponding to the amplified target sequence for all but the 1/80 dilution	significantly less amplified product	at least 3 minutes	significant increase in the intensity of the band corresponding to the amplified target sequence, and a significant decrease in the intensity of the bands corresponding to non-specific amplification products	remain inactivated for at least four weeks		
cis-aconitylated DNA polymerase: Taq DNA polymerase modified using cis-aconitic anhydride (90× and 180× preparations)		nearly as much product as the amplifications using an extended pre-reaction incubations				The effect was smallest	all pre-reaction incubation times resulted in a strong band corresponding to amplified product
unmodified Taq DNA polymerase: Taq DNA polymerase (AmpliTaq®, Perkin Elmer), unmodified comparison enzyme [reference compound]	predominantly non-specific amplification product			predominantly non-specific amplification product			
B1	greater production of specific amplification product than seen in amplifications using unmodified Taq DNA polymerase						
